From PubChem BioAssay AID318 (DTP/NCI, 2004)
“And” between values parts separate entries of the source, which are not always exact repeats. Equal values may be shown once. Toxic doses and inconclusive results are not listed. Starred links: 1 amine or outer side, 2 acyl side, 3 side chain; linkers in the order of their positions; H or OH if unused. Positions of bridges follow the written chain, without caps; N, C: chain ends. Non-standard residues stand in square brackets, D forms with d. Residues, ends and D or L forms follow the SMILES beside them. Chains are numbered I, II in the order given. Actinocin(1to9) = Cc1c2oc3c(C)ccc(C(=O)[*:2])c3nc-2c(C(=O)[*:1])c(N)c1=O; NMeV = CN[CH](C(=O)O)C(C)C; Aze = O=C(O)[CH]1CCN1; Sar = CNCC(=O)O

Tested on: BDF1 mice, P815 leukemia ip, survival T/C
Experiment: NCI In Vivo Anticancer Drug Screen. Data for tumor model P815 Mast Cell Leukemia (Ascitic) (intraperitoneal) in B6D2F1 (BDF1) mice
Conditions: higher = longer survival
Method: The antitumor activity of compounds was measured in mice bearing transplantable tumors. Survival or tumor size were measured and the results are expressed as the measurement made in the treated group (T) divided by the measurement made in the vehicle treated control group (C). The tumor model used in this assay is P815 Mast Cell Leukemia (Ascitic) (intraperitoneal) in B6D2F1 (BDF1) mice

[1] = endpoint: survival time, mean or median, dose: 2.0 mg/kg/injection, schedule: Q01DX010 (ip), vehicle: saline
[2] = endpoint: survival time, mean or median, dose: 4.0 mg/kg/injection, schedule: Q01DX010 (ip), vehicle: saline
[3] = endpoint: survival time, mean or median, dose: 62.5 mg/kg/injection, schedule: Q01DX010 (ip), vehicle: saline
[4] = endpoint: survival time, mean or median, dose: 125.0 mg/kg/injection, schedule: Q01DX010 (ip), vehicle: saline
[5] = endpoint: survival time, mean or median, dose: 250.0 mg/kg/injection, schedule: Q01DX010 (ip), vehicle: saline
[6] = endpoint: survival time, mean or median, dose: 500.0 mg/kg/injection, schedule: Q01DX010 (ip), vehicle: saline

For `Cc1cc2nc3c(=O)[nH]c(=O)nc-3n(CC(O)C(O)C(O)C(O)CO)c2cc1C` (centres undefined), the T/C (endpoint: survival time, mean or median, dose: 50.0 mg/kg/injection, schedule: Q01DX010 (ip), vehicle: saline) was 100 % of control, the T/C (endpoint: survival time, mean or median, dose: 100.0 mg/kg/injection, schedule: Q01DX010 (ip), vehicle: saline) was 100 % of control and the T/C (endpoint: survival time, mean or median, dose: 200.0 mg/kg/injection, schedule: Q01DX010 (ip), vehicle: saline) was 88 % of control and 100 % of control. For the same molecule, the T/C (endpoint: survival time, mean or median, dose: 400.0 mg/kg/injection, schedule: Q01DX010 (ip), vehicle: saline) was 88 % of control.

For `O=C(Nc1ccc(NC2=NCCN2)cc1)c1ccc(C(=O)Nc2ccc(NC3=NCCN3)cc2)cc1`, the T/C [1] was 110 % of control and 111 % of control and the T/C [2] was 105 % of control and 113 % of control.

`O=c1cn[nH]c(=O)[nH]1` was tested, and the T/C [3] was 91 % of control and 95 % of control, the T/C [4] was 91 % of control and 100 % of control and the T/C [5] was 95 % of control. For the same molecule, the T/C [6] was 100 % of control and 104 % of control.

`CCCSc1ncnc2nc[nH]c12` was tested, and the T/C (endpoint: survival time, mean or median, dose: 31.3 mg/kg/injection, schedule: Q01DX010 (ip), vehicle: saline) was 100 % of control and 111 % of control, the T/C [3] was 111 % of control and the T/C [4] was 111 % of control and 122 % of control.

With `CC(=O)N(C)C` the T/C [3] was 91 % of control and 100 % of control, the T/C [4] was 100 % of control and 108 % of control and the T/C [5] was 91 % of control. The T/C [6] was 95 % of control and 104 % of control.

`O=C(O)c1[nH]c(=O)[nH]c(=O)c1F` was tested, and the T/C (endpoint: survival time, mean or median, dose: 13.0 mg/kg/injection, schedule: Q01DX015 (ip), vehicle: carboxymethylcellulose (CMC)) was 86 % of control.

With `NC(=O)N(CCCl)N=O` the T/C (endpoint: survival time, mean or median, dose: 0.5 mg/kg/injection, schedule: Q01DX010 (ip), vehicle: saline) was 175 % of control, the T/C (endpoint: survival time, mean or median, dose: 1.0 mg/kg/injection, schedule: Q01DX010 (ip), vehicle: saline) was 210 % of control and the T/C [1] was 100 % of control. The T/C [2] was 105 % of control.

`COc1cc([C@@H]2c3cc4c(cc3[C@H](O)[C@H]3COC(=O)[C@@H]23)OCO4)cc(OC)c1OC` was tested, and the T/C (endpoint: survival time, mean or median, dose: 10.0 mg/kg/injection, schedule: Q01DX015 (ip), vehicle: carboxymethylcellulose (CMC)) was 112 % of control, the T/C (endpoint: survival time, mean or median, dose: 20.0 mg/kg/injection, schedule: Q01DX015 (ip), vehicle: carboxymethylcellulose (CMC)) was 150 % of control and the T/C (endpoint: survival time, mean or median, dose: 40.0 mg/kg/injection, schedule: Q01DX015 (ip), vehicle: carboxymethylcellulose (CMC)) was 167 % of control.

With `CC(=O)OCC1OC(n2cnc3c(=S)nc(N)[nH]c32)C(OC(C)=O)C1OC(C)=O` (centres undefined) the T/C (endpoint: survival time, mean or median, dose: 1.5 mg/kg/injection, schedule: Q01DX015 (ip), vehicle: other) was 113 % of control, the T/C (endpoint: survival time, mean or median, dose: 3.1 mg/kg/injection, schedule: Q01DX015 (ip), vehicle: other) was 110 % of control and the T/C (endpoint: survival time, mean or median, dose: 6.2 mg/kg/injection, schedule: Q01DX015 (ip), vehicle: other) was 108 % of control. For the same molecule, the T/C (endpoint: survival time, mean or median, dose: 12.5 mg/kg/injection, schedule: Q01DX015 (ip), vehicle: other) was 88 % of control.

In the case of `C[N+](C)(C)c1ncnc2nc[nH]c12`, the T/C (endpoint: survival time, mean or median, dose: 15.0 mg/kg/injection, schedule: Q01DX010 (ip), vehicle: saline) is reported as 100 % of control, the T/C (endpoint: survival time, mean or median, dose: 30.0 mg/kg/injection, schedule: Q01DX010 (ip), vehicle: saline) is reported as 94 % of control and the T/C (endpoint: survival time, mean or median, dose: 60.0 mg/kg/injection, schedule: Q01DX010 (ip), vehicle: saline) is reported as 88 % of control.

With `OCC1OC(n2cnc3c(Cl)ncnc32)C(O)C1O` (centres undefined) the T/C [3] was 104 % of control and 108 % of control, the T/C [4] was 100 % of control and 104 % of control and the T/C [5] was 91 % of control and 100 % of control. The T/C [6] was 95 % of control.

`Cc1c2oc3c(C)ccc(C(=O)NC4C(=O)NC(C(C)C)C(=O)N5CCCC5C(=O)N(C)CC(=O)N(C)C(C(C)C)C(=O)OC4C)c3nc-2c(C(=O)NC2C(=O)NC(C(C)C)C(=O)N3CCC3C(=O)N(C)CC(=O)N(C)C(C(C)C)C(=O)OC2C)c(N)c1=O` (centres undefined) (I: TV[Aze][Sar][NMeV] / II: TVP[Sar][NMeV]; ester I:1-I:C, II:1-II:C; linker I:N-II:N via Actinocin(1to9); configuration not given here) was tested, and the T/C (endpoint: median survival time, dose: 450.0 micrograms/kg/injection, schedule: Q01DX001 (ip), vehicle: saline + alcohol) was 116 % of control, the T/C (endpoint: median survival time, dose: 750.0 micrograms/kg/injection, schedule: Q01DX001 (ip), vehicle: saline + alcohol) was 118 % of control and the T/C (endpoint: median survival time, dose: 750.0 micrograms/kg/injection, schedule: Q04DX003 (ip), vehicle: saline + alcohol) was 96 % of control. For the same molecule, the T/C (endpoint: median survival time, dose: 1250.0 micrograms/kg/injection, schedule: Q04DX003 (ip), vehicle: saline + alcohol) was 93 % of control and the T/C (endpoint: median survival time, dose: 2080.0 micrograms/kg/injection, schedule: Q01DX001 (ip), vehicle: saline + alcohol) was 86 % of control.

With `OCC1OC(n2cnc3c(=S)nc[nH]c32)C(O)C1O` (centres undefined) the T/C (endpoint: survival time, mean or median, dose: 20.0 mg/kg/injection, schedule: Q01DX010 (ip), vehicle: saline) was 104 % of control and 116 % of control, the T/C (endpoint: survival time, mean or median, dose: 40.0 mg/kg/injection, schedule: Q01DX010 (ip), vehicle: saline) was 91 % of control and 108 % of control and the T/C (endpoint: survival time, mean or median, dose: 80.0 mg/kg/injection, schedule: Q01DX010 (ip), vehicle: saline) was 95 % of control and 116 % of control.
